Experimental data reported in US7903239B2, “Porous photonic crystal with light scattering domains and methods of synthesis and use thereof” (priority 2004, dated 2011).

Assays:
[1] = tested on: primary rat hepatocytes; test: Phase-contrast microscopy of hepatocytes on tissue-culture polystyrene plates; conditions: 50 μM Cd^2+
Description: Optical measurements. Images for cells seeded on porous silicon photonic crystals were collected using a reflectance microscope and a 10× LWD objective with on-normal and off-normal illumination using a white light source. Phase contrast images for cells seeded on tissue cultured polystyrene multi-well plates were obtained on a Nikon TE200 microscope with a 10× objective and captured with a camera. Images were processed on Metamorph and JImage. […] Cells were seeded on the porous Si chips at less than 100% coverage so that the porous silicon background could provide contrast. In order to follow the same subset of cells throughout the course of morphology changes for the Cd^2+ toxicity studies, the cells were not incubated while monitoring with the microscope. Rather, cells were placed on a chip and Cd^2+ concentration was adjusted to a final concentration of 200 μM. Pictures were obtained at time 0 and 85 minutes.

[2] = tested on: hepatocytes; conditions: Cd^2+ in the 50-400 μM range; cited from earlier work
[3] = tested on: rat hepatocyte cells; test: MTT cell viability assay; type: cell-based; conditions: 50 μM Cd^2+, after ~10 h
[4] = tested on: primary rat hepatocytes; test: Light scattering from hepatocytes seeded on a porous Si photonic crystal (CCD spectrometer, in incubator); type: cell-based; conditions: 50 μM Cd^2+
Description: Hepatocytes were isolated from 2-3 month old adult female Lewis rats by collagenase perfusion as previously described. Hepatocytes were then seeded on the polystyrene-coated porous silicon samples or on tissue-culture polystyrene dishes.
Hepatocytes were then seeded on the activated polystyrene-coated chip.
Cell seeding. Porous Si photonic crystal samples were sterilized in a 35 mm dish with 2 mL of 100% ethanol for 1 hour. Ethanol was removed and the samples were allowed to dry in a sterile laminar-flow hood. The samples and dish were washed twice with sterile water. To improve adhesion, 2 mL of a 0.1 mg/mL solution of rat-tail collagen (collagen I) was added to the dish, and the samples were incubated at 37° C. for one h. The collagen-coated samples were then washed once with sterile water, and once with growth media. Media for all experiments was DMEM with high glucose (Invitrogen), 10% fetal bovine serum, supplemented with 0.5 U/mL insulin, 7 ng/mL glucagon, 7.5 mg/mL hydrocortisone, 10 U/mL penicillin, and 10 mg/mL streptomycin. Hepatocytes were isolated from 2-3 month old adult female Lewis rats by collagenase perfusion as previously described. Less than one hour after isolation, 1.25×10^6 cells per dish were seeded in 2 mL of media for scattering experiments and 6×10^5 cells per dish for microscope experiments. As the porous Si samples were smaller than the dish, some cells settled and attached to the polystyrene surface. Unattached cells were removed after one hour and dishes were incubated at 37° C., 5% CO2 for 24 hours to allow spreading before the start of observation.
Reflectance spectra were collected using an Ocean Optics S-2000 CCD spectrometer fitted with a microscope objective lens coupled to either a bifurcated fiber optic cable (for specular measurements) or a single fiber optic cable (for scattering measurements). […]

[5] = tested on: hepatocytes; test: Reflectance microscopy of non-incubated hepatocytes on porous Si photonic crystal; type: cell-based, rat; conditions: 200 μM Cd^2+, eighty-five min after introduction, cells not incubated
Description: More particularly, measurement of light scattered from a monolayer of hepatocyte cells on a porous Si photonic crystal is used to measure changes in cellular morphology. Data were collected after hepatocytes were administered a toxic dose of aqueous cadmium chloride (200 μM). […] Upon exposure to Cd^2+, characteristic changes in morphology that accompany loss of viability, such as blebbing and increased granularity, are observed (FIG. 9b). The optical setup produces more dramatic images upon exposure to a toxic dose of Cd^2+. In this arrangement, cells appear with a color characteristic of the underlying photonic crystal, while the regions that are not covered with cells appear darker (FIG. 5a). After loss of viability, the cytoplasm appears brighter, leading to greater nuclear and cell boundary contrast (FIG. 5b).
Optical measurements. […] Images were processed on Metamorph and JImage. […] Pictures were obtained at time 0 and 85 minutes.

## [Cl][Cd][Cl] [Cd^2+, cadmium chloride]
[1]
  hepatocyte morphology by phase contrast: granular appearance increases substantially, even after 2 h
  time by which most cellular features become indistinguishable: ≤ 14 h
[2]
  time of cell damage (decrease in membrane and metabolic integrity): within the first hour of exposure
[3]
  viability according to MTT stain, % of the initial value: ~50%
[4]
  time after which intensity of scattered light reaches a constant value: ~10 h
  time after which relative scattered intensity shows a significant increase: ~2 h
  time by which scattering changes precede first loss of viability in MTT stain: ~2 h
[5]
  hepatocytes that have lost viability: > 90%
